Experimental data published in publication PMC7010297, “How the initiating ribosome copes with ppGpp to translate mRNAs” (PLoS Biology, 2020).
Values joined by “and” are separate entries in the source; they are usually repeats but may differ in a detail not shown here. Equal entries are not always repeated.

How the values were obtained:
[1] = target: T1, IF2-bound 30S IC (Escherichia coli, UniProt P0A705); test: 30S IC formation by MST, guanosine nucleotide titration; format: binding;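 for MST Average: lower thermophoresis signal means Bpy-tRNAi dissociation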;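 for MST Replicates (a.u.): lower thermophoresis signal means Bpy-tRNAi dissociation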
T1 construct: 6xHis (N); made in house
T1 sequence (P0A705 whole entry, looked up): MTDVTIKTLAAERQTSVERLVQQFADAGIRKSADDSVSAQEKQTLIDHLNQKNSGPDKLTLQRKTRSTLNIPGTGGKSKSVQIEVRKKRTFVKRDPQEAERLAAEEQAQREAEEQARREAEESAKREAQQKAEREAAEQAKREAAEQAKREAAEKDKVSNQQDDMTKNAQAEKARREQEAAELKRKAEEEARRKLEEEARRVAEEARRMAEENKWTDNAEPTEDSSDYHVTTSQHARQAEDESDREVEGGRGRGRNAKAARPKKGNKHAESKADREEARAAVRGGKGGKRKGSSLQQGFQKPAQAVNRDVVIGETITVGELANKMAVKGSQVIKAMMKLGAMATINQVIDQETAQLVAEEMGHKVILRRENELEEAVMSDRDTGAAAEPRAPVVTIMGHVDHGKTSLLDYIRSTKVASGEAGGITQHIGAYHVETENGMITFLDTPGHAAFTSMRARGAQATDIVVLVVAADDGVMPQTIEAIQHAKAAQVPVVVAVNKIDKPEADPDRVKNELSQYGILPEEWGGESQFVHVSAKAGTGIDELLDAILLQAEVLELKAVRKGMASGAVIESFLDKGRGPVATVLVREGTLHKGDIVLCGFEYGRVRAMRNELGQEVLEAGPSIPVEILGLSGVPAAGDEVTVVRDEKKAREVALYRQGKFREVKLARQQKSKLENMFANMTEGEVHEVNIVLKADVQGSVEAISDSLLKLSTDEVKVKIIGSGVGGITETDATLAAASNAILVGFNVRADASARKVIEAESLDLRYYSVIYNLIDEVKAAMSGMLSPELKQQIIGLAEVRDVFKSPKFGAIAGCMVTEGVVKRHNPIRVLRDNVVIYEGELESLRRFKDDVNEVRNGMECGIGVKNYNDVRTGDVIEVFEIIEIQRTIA
Source text: To monitor the interaction of initiator tRNA and 30S ribosomal subunits, we used Microscale Thermophoresis (MST) with a fluorescently labelled initiator tRNA (Bpy-tRNAi) (Fig 1B). MST allows to measure fluorescence in a constrained space. Changes on the readout derive from molecular drifts resulting from small thermal equilibrium perturbations. Upon equilibrium perturbations, the patterns of Bpy-tRNAi migration away from the observation space are related to bound and unbound states (Fig 1B). […] On the contrary, a decrease in thermophoresis indicated the dissociation of Bpy-tRNAi. The relation between fluorescence measured at both equilibriums (Ff to Fi, after and prior to the perturbation, respectively) as a function of ligand concentration allowed to determine dissociation constants of the interaction (Fig 1C).
(§1) Continuous lines indicate nonlinear regression fittings with a quadratic equation. Three measurements were performed; mean and standard deviation are plotted (S1 Data). (B) as (A) to measure the concentration dependence for each tested guanosine nucleotide at constant IF2 (1 μM). […] Continuous lines show best fits using exponential functions. (D) Formation of 70S IC as measured by Bpy-tRNAi accommodation in the P site of the ribosome; 0.1 μM 30S ICs were formed with Bpy-tRNAi and rapidly mixed with 0.3 μM 50S subunits on a stopped-flow apparatus as described in [14]. Colors are as in (C). Continuous lines show best fits using an exponential function for a single reaction step. Each stopped-flow trace results from the mean of 5 to 7 replicates.
MST was calculated from the respective fluorescence time dependencies (S3 Fig). […] Symbols as in (B). […] Continuous lines indicate nonlinear regression fittings with quadratic (B and E) or same-site competition (G) functions. Three measurements were performed; mean and standard deviations are plotted (S1 Data).

[2] = target: T2, 70S IC (Escherichia coli, UniProt P0A705); test: 70S IC formation by Bpy-tRNAi accommodation, stopped-flow; format: biochemical; design: K1, best-fit value: unit not given here; settings: for A0, best-fit value / A1, best-fit value / K1, best-fit value / k2, best-fit value: fit Y=A0+A1*exp(-K1*x)+k2*x; for kfast (s-1) Avg: fluorescence
T2 construct: 6xHis (N); made in house
T2 sequence (P0A705 whole entry, looked up): as above
Experimental: as §1
(A) Scheme of 70S IC formation. […] Time traces were analyzed by nonlinear regression with exponential terms. […] Formation of 70S IC, as measured by Bpy-tRNAi accommodation in the absence (F) or presence of 200 μM ppGpp (G). Time traces were analyzed by nonlinear regression with one exponential term. […] Continuous lines show best fits using an exponential function for a single reaction step. All time traces are mean values of 5 to 10 replicates. Bar graphs show mean and standard errors (error bars) derived from the nonlinear regression fitting (D,E,H,I) (S1 Data).
To measure 70S pre-IC formation, a SX-20 stopped-flow instrument (Applied Photophysics, Leatherhead, UK) was set up for LS recording with an excitation wavelength of 430 nm. Scattered light was measured at an angle of 90° without a filter. Pseudo first-order conditions were approximated by using ≥3-fold excess of 50S subunits over 30S ICs; 0.2 μM 30S ICs were rapidly mixed in the instrument with 0.6 μM 50S at 25 °C. Bpy-tRNAi accommodation was measured essentially as described elsewhere. Briefly, 0.2 μM 30S ICs were formed using Bpy-tRNAi and rapidly mixed with 0.6 μM 50S at 25 °C. Fluorescence was excited at 470 nm and measured after a 495-nm longpass filter. Individual traces (6–11 traces) were averaged, and the resulting kinetic curve was approximated by single (F = A0 + A1*exp (-kapp1*t)) or double (F = A0 + A1*exp (-kapp1*t) + A2*exp (-kapp2*t)) exponential fit using Graphpad Prism 6.0 software (GraphPad, San Diego, California).

Question: `Nc1nc2c(ncn2[C@@H]2O[C@H](COP(=O)(O)OP(=O)(O)OP(=O)(O)O)[C@@H](O)[C@H]2O)c(=O)[nH]1` [GTP, guanosine triphosphate] was tested. Which “MST Replicates (a.u.)” value ([1]; mMF1, GTP 0.061 μM) did it give?
Answer: Its value is 954.37 a.u. and 956.60 a.u. and 956.92 a.u.

Question: What about the “MST Average” value ([1]; mMF1, GTP 0.122 μM) of the same compound?
Answer: Its value is 960.57 a.u.

Question: What about the “MST Replicates (a.u.)” value ([1]; mMF1, GTP 0.122 μM) of the same compound?
Answer: Its value is 957.75 a.u. and 961.91 a.u. and 962.05 a.u.

Question: And the “MST Average” value ([1]; mMF1, GTP 0.244 μM)?
Answer: The value was 971.65 a.u.

Question: What about the “MST Replicates (a.u.)” value ([1]; mMF1, GTP 0.244 μM) of the same compound?
Answer: The value was 968.94 a.u.

Question: What about the “MST Average” value ([1]; mMF1, GTP 1.953 μM) of the same compound?
Answer: The value was 1013.90 a.u.

Question: What about the “MST Average” value ([1]; mMF1, GTP 3.906 μM) of the same compound?
Answer: Its value is 1027.63 a.u.

Question: And the “MST Replicates (a.u.)” value ([1]; mMF1, GTP 3.906 μM)?
Answer: The value was 1022.88 a.u. and 1029.90 a.u. and 1030.12 a.u.

Question: And the “MST Average” value ([1]; mMF1, GTP 7.812 μM)?
Answer: Its value is 1034.32 a.u.

Question: And the “MST Replicates (a.u.)” value ([1]; mMF1, GTP 7.812 μM)?
Answer: The value was 1030.42 a.u. and 1036.20 a.u. and 1036.34 a.u.

Question: What about the “MST Average” value ([1]; mMF1, GTP 15.625 μM) of the same compound?
Answer: The value was 1039.20 a.u.

Question: What about the “MST Replicates (a.u.)” value ([1]; mMF1, GTP 15.625 μM) of the same compound?
Answer: Its value is 1035.40 a.u. and 1041.45 a.u. and 1040.76 a.u.

Question: And the “MST Average” value ([1]; mMF1, GTP 31.25 μM)?
Answer: The value was 1035.42 a.u.

Question: What about the “MST Replicates (a.u.)” value ([1]; mMF1, GTP 31.25 μM) of the same compound?
Answer: The value was 1032.74 a.u. and 1036.98 a.u. and 1036.55 a.u.

Question: And the “KD of GTP with mTufA lower than with mMF1” value ([1]; mTufA vs mMF1)?
Answer: The value was “about 2 fold”.

Question: What about the “MST Average” value ([1]; mTufA, GTP 0.244 μM) of the same compound?
Answer: The value was 1017.37 a.u.

Question: And the “MST Average” value ([1]; mTufA, GTP 1.953 μM)?
Answer: The value was 1082.32 a.u.

Question: What about the “MST Average” value ([1]; mTufA, GTP 3.906 μM) of the same compound?
Answer: The value was 1097.99 a.u.

Question: What about the “MST Replicates (a.u.)” value ([1]; mTufA, GTP 3.906 μM) of the same compound?
Answer: The value was 1095.97 a.u. and 1098.36 a.u. and 1099.66 a.u.

Question: What about the “MST Average” value ([1]; mTufA, GTP 7.812 μM) of the same compound?
Answer: Its value is 1113.91 a.u.

Question: What about the “MST Replicates (a.u.)” value ([1]; mTufA, GTP 7.812 μM) of the same compound?
Answer: The value was 1111.40 a.u. and 1114.56 a.u. and 1115.76 a.u.

Question: What about the “MST Average” value ([1]; mTufA, GTP 15.625 μM) of the same compound?
Answer: Its value is 1117.61 a.u.

Question: What about the “MST Replicates (a.u.)” value ([1]; mTufA, GTP 15.625 μM) of the same compound?
Answer: Its value is 1116.26 a.u. and 1117.65 a.u. and 1118.92 a.u.

Question: What about the “MST Average” value ([1]; mTufA, GTP 31.25 μM) of the same compound?
Answer: Its value is 1112.61 a.u.

Question: And the “MST Replicates (a.u.)” value ([1]; mTufA, GTP 31.25 μM)?
Answer: The value was 1112.94 a.u. and 1112.01 a.u. and 1112.88 a.u.

Question: What about the Kd ([1]; nucleotide titration at constant IF2 (1 μM), read-out: KD for the IF2-bound 30S IC) of the same compound?
Answer: The Kd was 500 ± 100 nM.

Question: And the “kapp of Bpy-tRNAi accommodation (70S IC formation)” value ([2]; 30S ICs formed with 0.2 mM nucleotide, mixed with 50S subunits)?
Answer: The value was 2.4 ± 0.2 s^–1.

Question: What about the “A0, best-fit value” ([2]; mInfA) of the same compound?
Answer: Its value is 0.90.

Question: What about the “A1, best-fit value” ([2]; mInfA) of the same compound?
Answer: Its value is 0.11.

Question: What about the “K1, best-fit value” ([2]; mInfA) of the same compound?
Answer: The value was 1.58.

Question: What about the “k2, best-fit value” ([2]; mInfA) of the same compound?
Answer: Its value is -0.00193.

Question: And the “A0, best-fit value” ([2]; mMF1)?
Answer: Its value is 0.90.

Question: What about the “A1, best-fit value” ([2]; mMF1) of the same compound?
Answer: The value was 0.10.

Question: What about the “K1, best-fit value” ([2]; mMF1) of the same compound?
Answer: The value was 1.49.

Question: And the “k2, best-fit value” ([2]; mMF1)?
Answer: The value was -1.6e-5.

Question: What about the “Fluorescence Amplitude Avg” value ([2]; mRNA mInfA) of the same compound?
Answer: Its value is 0.108.

Question: What about the “kfast (s-1) Avg” value ([2]; mRNA mInfA) of the same compound?
Answer: The value was 1.58 s⁻¹.

Question: What about the “Fluorescence Amplitude Avg” value ([2]; mRNA mMF1) of the same compound?
Answer: Its value is 0.103.

Question: What about the “kfast (s-1) Avg” value ([2]; mRNA mMF1) of the same compound?
Answer: Its value is 1.49 s⁻¹.

Question: What about the “Fluorescence Amplitude Avg” value ([2]; mRNA mTufA) of the same compound?
Answer: Its value is 0.145.

Question: And the “kfast (s-1) Avg” value ([2]; mRNA mTufA)?
Answer: The value was 2.69 s⁻¹.

Question: What about the “A0, best-fit value” ([2]; mTufA) of the same compound?
Answer: The value was 0.86.

Question: And the “A1, best-fit value” ([2]; mTufA)?
Answer: The value was 0.15.

Question: And the “K1, best-fit value” ([2]; mTufA)?
Answer: The value was 2.69.

Question: What about the “k2, best-fit value” ([2]; mTufA) of the same compound?
Answer: Its value is -0.00034.
